The record followed here is patent US20050171358A1 (priority 2002, published 2005).

One assay deals with Pyricularia oryzae. The class given is in vivo. To be noted: 200 ppm spray on rice (Koshihikari, 3 leaf stage), inoculated next day; lesion numbers on third leaves after 7 days in green house, graded by Table 5.
The next assay has as its system Phytophthora infestans. The class given is in vivo. Particulars: 125 ppm, 200 L/10 a spray on tomato (5 leaf stage), inoculated next day; diseased area rates of third to fifth true leaves after 3 days in green house, graded by Table 5.
The subject of assay [1] is Pseudoperonospora cubensis. Kind of assay: Effect test for cucumber downy mildew (Evaluation Example 4). Particulars: 125 ppm, 200 L/10 a spray on cucumber (3 leaf stage), inoculated next day; diseased area rates of first and second true leaves after 3 days in green house, graded by Table 5. The class given is in vivo. As for the experimental part:
The active ingredient compound was diluted with water containing 0.01% Tween 20 to have a concentration of 125 ppm. […] Next day, a zoosporangium suspension of Pseudoperonospora cubensis which was the causative fungus of cucumber downy mildew was sprayed to inoculate.

Assay [2] relates to Colletotrichum lagenarium. Particulars: 200 ppm spray on cucumber (3 leaf stage), inoculated next day; lesion numbers on first and second leaves after 7 days in green house, graded by Table 5.

With `O=C(NCc1cc(CCl)no1)NC1CCCCC1` [II-105, 3-(3-chloromethyl-5-isoxazolyl)methyl-1-cyclohexylurea], the “Evaluation (effect for rice blast)” value in the assay on Pyricularia oryzae is 2 (11˜20). The “Evaluation (effect for tomato late blight)” value in the assay on Phytophthora infestans is listed as 5 (0). For the same compound, the “Evaluation (effect for cucumber downy mildew)” value in assay [1] is 4 (1˜5).
Turning to `O=C(NCc1cc(CI)no1)NC1CCCCC1` [II-115, 3-(3-iodomethyl-5-isoxazolyl)methyl-1-cyclohexylurea], in the assay with Pyricularia oryzae, the “Evaluation (effect for rice blast)” value was 3 (6˜10). Further, the “Evaluation (effect for tomato late blight)” value in the assay with Phytophthora infestans is recorded as 3 (6˜10). In assay [1], the “Evaluation (effect for cucumber downy mildew)” value is 1 (21˜41). Also, the “Evaluation (effect for cucumber anthracnose)” value in assay [2] is 2 (11˜20).
With `Cc1ccc(C(=O)NCc2cc(CCl)no2)cc1` [III-2, N-[(3-chloromethyl-5-isoxazolyl)methyl]-4-methylbenzamide], the “Evaluation (effect for rice blast)” value with Pyricularia oryzae is 4 (1˜5). In addition, the “Evaluation (effect for tomato late blight)” value with Phytophthora infestans was 5 (0). Further, in assay [1], the “Evaluation (effect for cucumber downy mildew)” value is on record as 5 (0). Further, the “Evaluation (effect for cucumber anthracnose)” value in assay [2] is 4 (1˜5).
For `O=C(NCc1cc(CCl)no1)c1ccccc1` [III-226, N-[(3-chloromethyl-5-isoxazolyl)methyl]benzamide], in the assay on Phytophthora infestans, the “Evaluation (effect for tomato late blight)” value is given as 3 (6˜10). Moreover, the “Evaluation (effect for cucumber downy mildew)” value in assay [1] was 4 (1˜5).
The matching figures for `O=C(NCc1cc(CCl)no1)c1ccc(Cl)cc1` [III-254, N-[(3-chloromethyl-5-isoxazolyl)methyl]-4-chlorobenzamide]: 5 (0) and 3 (6˜10).
For the compound `O=C(NCc1cc(CCl)no1)c1ccc2ccccc2c1` [III-267, N-[(3-chloromethyl-5-isoxazolyl)methyl]-2-naphthalenecarboxamide], in the assay on Phytophthora infestans, the “Evaluation (effect for tomato late blight)” value is on record as 5 (0). Besides, the “Evaluation (effect for cucumber downy mildew)” value in assay [1] is on record as 5 (0).
Consider `CCc1ccc(C(=O)NCc2cc(CCl)no2)cc1` [III-269, N-[(3-chloromethyl-5-isoxazolyl)methyl]-4-ethylbenzamide], for which, in the assay on Phytophthora infestans, the “Evaluation (effect for tomato late blight)” value was 5 (0). Further, the “Evaluation (effect for cucumber downy mildew)” value in assay [1] is 5 (0).
As for `O=C(NCc1cc(CCl)no1)c1ccc(Cl)c(Cl)c1` [III-272, N-[(3-chloromethyl-5-isoxazolyl)methyl]-3,4-dichlorobenzamide], the “Evaluation (effect for tomato late blight)” value with Phytophthora infestans is reported as 5 (0). In assay [1], the “Evaluation (effect for cucumber downy mildew)” value is 3 (6˜10).
As to `Cc1cccc(C(=O)NCc2cc(CCl)no2)c1` [III-274, N-[(3-chloromethyl-5-isoxazolyl)methyl]-3-methylbenzamide], the “Evaluation (effect for tomato late blight)” value in the assay with Phytophthora infestans is listed as 4 (1˜5). For the same compound, the “Evaluation (effect for cucumber downy mildew)” value in assay [1] is on record as 2 (11˜20).
For `O=C(NCc1cc(CCl)no1)c1cccc(Cl)c1` [III-277, N-[(3-chloromethyl-5-isoxazolyl)methyl]-3-chlorobenzamide] the same measures were 4 (1˜5) and 2 (11˜20).
In the case of `O=C(NCc1cc(CCl)no1)c1ccc([N+](=O)[O-])cc1` [III-278, N-[(3-chloromethyl-5-isoxazolyl)methyl]-4-nitrobenzamide], in the assay with Phytophthora infestans, the “Evaluation (effect for tomato late blight)” value was 4 (1˜5). Further, the “Evaluation (effect for cucumber downy mildew)” value in assay [1] was 2 (11˜20).
The matching figures for `CS(=O)(=O)c1ccc(C(=O)NCc2cc(CCl)no2)c(Cl)c1` [III-279, N-[(3-chloromethyl-5-isoxazolyl)methyl]-2-chloro-4-methanesulfonylbenzamide]: 5 (0) and 3 (6˜10).
